Experimental data as given in PubChem BioAssay AID1963962 (Molecular Pharmacology Branch, DTP, NCI, 2024).
Each block holds one compound with its values, some of them ahead of it.

Tested on: 967376-340-R-J2-PDC multicell spheroid viability
Experiment: Anticancer human tumor 967376-340-R-J2-PDC patient-derived colon adenocarcinoma cell line growth inhibition [PI3K]
Details: for IC50: curve of first compound; for viability, T/C: stronger effect = lower value
Source text: Combinatorial screen of targeted agents with the PI3K inhibitors inavolisib, alpelisib, duvelisib, and copanlisib in multi-cell type tumor spheroids
A high-throughput screen of multi-cell type tumor spheroids was designed to identify active combinations of targeted small molecules and PI3K pathway inhibitors. Complex spheroids include a stromal component modeled by human endothelial cells (HUVEC) and fibroblasts modeled by human mesenchymal stem cells (MSCs). The concentration ranges selected for each drug and investigational agent were based upon clinically achievable concentrations if the clinical Cmax of the agent was known.
Compounds. The drugs and investigational agents: inavolisib (NSC800729), alpelisib (NSC765974), duvelisib (NSC772469), copanlisib (NSC816437), ipatasertib (NSC767898), afuresertib (NSC778305), talazoparib (NSC767125), sapanisertib (NSC764658), selumetinib (NSC741078), tovorafenib (DAY101, NSC766906), vemurafenib (NSC761431), ravoxertinib (NSC781343), sotorasib (NSC818433), MRTX1133 (NSC 836407), abemaciclib (NSC 768073), palbociclib (NSC758247), venetoclax (NSC 766270), SY5609 (NSC837396), enzalutamide (NSC755605), and darolutamide (NSC825331), were obtained from the National Cancer Institute (NCI) Developmental Therapeutics Program Chemical Repository. The FDA-approved anticancer drug set is available from the NCI Developmental Therapeutics Program. […] The stock solutions were prepared in dimethyl sulfoxide (DMSO, Sigma-Aldrich, St. Louis, MO, cat. D2650) at 800-fold the tested concentration and stored at -70 degrees C prior to their use. All drugs and investigational agents were tested over a range starting from a high concentration at or near the clinical Cmax and decreasing in half-log increments. If the clinical Cmax for an agent had not been determined, the highest concentration tested was 10 microM.
Cell Culture. All cells were maintained in an incubator at 37 degrees C and 5% CO2 with 95% humidity. The PDC lines were cultured according to standard operating procedures established by the NCI PDMR (https://pdmr.cancer.gov/sops/default.htm). All PDCs were thawed and cultured in Matrigel-coated flasks prepared with a working solution of 1X Ham's F-12 nutrient mix, without supplementation (Invitrogen, Waltham, MA, cat. 11765054), 100 U/mL penicillin-streptomycin (Invitrogen, cat. 15140122), and 2.5% Matrigel (Corning Inc., Corning, NY, cat. 354248) for the first three passages. The 354836-022-R-J1-PDC, 475296-252-R-J1-PDC, and 997726-040-R-J2-PDC lines were cultured in 6A media, which includes advanced DMEM/F-12 (Thermo Fisher Scientific, cat. 12634028), 10 mM HEPES (Thermo Fisher Scientific, cat. 15630080), 1X GlutaMAX supplement (Thermo Fisher Scientific, cat. 35050061), 0.1 mg/mL primocin (InvivoGen, San Diego, CA, cat. ant-pm-2), 10% defined fetal bovine serum, heat inactivated (HyClone Laboratories Inc., Logan, UT, cat. SH30070.03HI), 50% L-WRN conditioned media (ATCC, cat. CRL-3276), 1.25 mM N-Acetyl-L-cysteine (Sigma-Aldrich, cat. A9165), 10 mM nicotinamide (Sigma-Aldrich, cat. N0636), 1X B-27 supplement (Thermo Fisher Scientific, cat. 17504044), 1X N-2 supplement (Thermo Fisher Scientific, cat. 17502048), and 10 microM Y-27632 dihydrochloride (Tocris Bioscience, Bristol, United Kingdom, cat. 1254). The 624824-186-R-J2-PDC line was cultured in 6C/Colon 1B media, which includes all 6A media components plus 50 ng/mL human EGF recombinant protein (Thermo Fisher Scientific, cat. PHG0311). […]

[1] = second compound 0.0316 µM, first compound 0.00949 µM
[2] = second compound 0.0316 µM, first compound 0.03 µM
[3] = second compound 0.0316 µM, first compound 0.0949 µM
[4] = second compound 0.0316 µM, first compound 0.3 µM
[5] = second compound 0.0316 µM, first compound 0.949 µM
[6] = second compound 0.0316 µM, first compound 3 µM
[7] = second compound 0.1 µM, first compound 0.00949 µM
[8] = second compound 0.1 µM, first compound 0.03 µM
[9] = second compound 0.1 µM, first compound 0.0949 µM
[10] = second compound 0.1 µM, first compound 0.3 µM
[11] = second compound 0.1 µM, first compound 0.949 µM
[12] = second compound 0.1 µM, first compound 3 µM
[13] = second compound 0.316 µM, first compound 0.00949 µM
[14] = second compound 0.316 µM, first compound 0.03 µM
[15] = second compound 0.316 µM, first compound 0.0949 µM
[16] = second compound 0.316 µM, first compound 0.3 µM
[17] = second compound 0.316 µM, first compound 0.949 µM
[18] = second compound 0.316 µM, first compound 3 µM
[19] = second compound 1 µM, first compound 0.00949 µM
[20] = second compound 1 µM, first compound 0.03 µM
[21] = second compound 1 µM, first compound 0.0949 µM
[22] = second compound 1 µM, first compound 0.3 µM
[23] = second compound 1 µM, first compound 0.949 µM
[24] = second compound 1 µM, first compound 3 µM
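Further: spheroids exposed to agents for 7 days before read-out.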
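Wherever viability, T/C is given: luminescence used as surrogate of cell viability.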

IC50 (second compound 0.0316 µM): 1460 nM
IC50 (second compound 0.1 µM): 2110 nM
IC50 (second compound 0.316 µM): 1920 nM
IC50 (second compound 1 µM): 1330 nM
IC50 (second compound 3.16 µM): 1340 nM
IC50 (second compound 10 µM): 666 nM
Compound: Cn1cnc2c(F)c(Nc3ccc(Br)cc3Cl)c(C(=O)NOCCO)cc21 + CC(Nc1ncnc2nc[nH]c12)c1cc2cccc(Cl)c2c(=O)n1-c1ccccc1
viability, T/C [1]: 73.5%
viability, T/C [2]: 112%
viability, T/C [3]: 95.4%
viability, T/C [4]: 75.5%
viability, T/C [5]: 61.4%
viability, T/C [6]: 34.5%
viability, T/C [7]: 106%
viability, T/C [8]: 107%
viability, T/C [9]: 87.5%
viability, T/C [10]: 102%
viability, T/C [11]: 74.7%
viability, T/C [12]: 38.5%
viability, T/C [13]: 78.8%
viability, T/C [14]: 104%
viability, T/C [15]: 97.9%
viability, T/C [16]: 78.3%
viability, T/C [17]: 61.9%
viability, T/C [18]: 43%
viability, T/C [19]: 97.1%
viability, T/C [20]: 97.4%
viability, T/C [21]: 90.1%
viability, T/C [22]: 78.1%
viability, T/C [23]: 64.5%
viability, T/C [24]: 21.1%
viability, T/C (second compound 3.16 µM, first compound 0.00949 µM): 82%
viability, T/C (second compound 3.16 µM, first compound 0.03 µM): 83.6%
viability, T/C (second compound 3.16 µM, first compound 0.0949 µM): 70.7%
viability, T/C (second compound 3.16 µM, first compound 0.3 µM): 97%
viability, T/C (second compound 3.16 µM, first compound 0.949 µM): 61.6%
viability, T/C (second compound 3.16 µM, first compound 3 µM): 22.6%
viability, T/C (second compound 10 µM, first compound 0.00949 µM): 78.4%
viability, T/C (second compound 10 µM, first compound 0.03 µM): 64.3%
viability, T/C (second compound 10 µM, first compound 0.0949 µM): 69.2%
viability, T/C (second compound 10 µM, first compound 0.3 µM): 66%
viability, T/C (second compound 10 µM, first compound 0.949 µM): 43.1%
viability, T/C (second compound 10 µM, first compound 3 µM): 13.7%

IC50 (second compound 0.00316 µM): 870 nM
IC50 (second compound 0.01 µM): 564 nM
IC50 (second compound 0.0316 µM): 461 nM
IC50 (second compound 0.1 µM): 301 nM
IC50 (second compound 0.316 µM): 15.7 nM
IC50 (second compound 1 µM): < 9.49 nM
Compound: Cn1cnc2c(F)c(Nc3ccc(Br)cc3Cl)c(C(=O)NOCCO)cc21 + CC(Nc1ccc2c(c1)OCCn1cc(N3C(=O)OCC3C(F)F)nc1-2)C(N)=O
viability, T/C (second compound 0.00316 µM, first compound 0.00949 µM): 91.2%
viability, T/C (second compound 0.00316 µM, first compound 0.03 µM): 92.1%
viability, T/C (second compound 0.00316 µM, first compound 0.0949 µM): 92.5%
viability, T/C (second compound 0.00316 µM, first compound 0.3 µM): 67.9%
viability, T/C (second compound 0.00316 µM, first compound 0.949 µM): 50.5%
viability, T/C (second compound 0.00316 µM, first compound 3 µM): 22.7%
viability, T/C (second compound 0.01 µM, first compound 0.00949 µM): 96%
viability, T/C (second compound 0.01 µM, first compound 0.03 µM): 94%
viability, T/C (second compound 0.01 µM, first compound 0.0949 µM): 82.2%
viability, T/C (second compound 0.01 µM, first compound 0.3 µM): 72.2%
viability, T/C (second compound 0.01 µM, first compound 0.949 µM): 30.3%
viability, T/C (second compound 0.01 µM, first compound 3 µM): 31.6%
viability, T/C [1]: 81.8%
viability, T/C [2]: 83.2%
viability, T/C [3]: 58.3%
viability, T/C [4]: 55.5%
viability, T/C [5]: 46.6%
viability, T/C [6]: 20.1%
viability, T/C [7]: 66.2%
viability, T/C [8]: 70.8%
viability, T/C [9]: 67.8%
viability, T/C [10]: 49.5%
viability, T/C [11]: 18.7%
viability, T/C [12]: 8.2%
viability, T/C [13]: 48.2%
viability, T/C [14]: 52.4%
viability, T/C [15]: 44.1%
viability, T/C [16]: 27.8%
viability, T/C [17]: 23.7%
viability, T/C [18]: 6.33%
viability, T/C [19]: 45.7%
viability, T/C [20]: 51%
viability, T/C [21]: 31.3%
viability, T/C [22]: 24.6%
viability, T/C [23]: 9.79%
viability, T/C [24]: 4.86%
